One may read the IC50 as the point on the concentration scale where inhibition reaches its midpoint. For orientation: EC50 means the concentration at which the effect is half-maximal.

The values that follow come from paper doi:10.1101/2024.12.09.627564, “Cannabinoid inhibition of mechanosensitive K^+ channels” (bioRxiv, 2024).

One test deals with T1, TRAAKG165E (Homo sapiens, UniProt Q9NYG8, G139E).
T1 construct: The transcribed messages encode H. sapiens TRAAK amino acids 1–393; expressed in transfected cells; host or cells: Xenopus laevis oocytes, cRNA injection
T1 sequence (Q9NYG8 1-393 G139E): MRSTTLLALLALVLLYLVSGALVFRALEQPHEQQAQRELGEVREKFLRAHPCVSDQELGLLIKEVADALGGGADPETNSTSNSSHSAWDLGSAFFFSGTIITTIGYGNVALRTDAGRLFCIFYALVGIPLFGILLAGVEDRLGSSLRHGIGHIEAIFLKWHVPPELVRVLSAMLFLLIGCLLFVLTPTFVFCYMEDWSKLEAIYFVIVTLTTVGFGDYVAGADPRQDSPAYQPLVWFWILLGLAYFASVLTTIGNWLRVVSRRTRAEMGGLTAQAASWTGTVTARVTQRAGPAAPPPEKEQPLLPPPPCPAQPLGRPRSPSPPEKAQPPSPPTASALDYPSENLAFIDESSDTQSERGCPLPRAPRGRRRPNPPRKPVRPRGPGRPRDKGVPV
Nature of the test: Excised patch recording of TRAAK mutant G165E. The class given is biochemical. The text has this: For patch clamp recording from Xenopus oocytes, genes encoding full-length Homo sapiens TRAAK (UniProt Q9NYG8–2), TREK-1 (UniProt O95069), and TREK-2 (UniProt P57789) were codon optimized for eukaryotic expression, synthesized (Genewiz), and cloned into a modified pGEMHE vector using Xho1 and EcoR1 restriction sites. The transcribed messages encode H. sapiens TRAAK amino acids 1–393, TREK-1 amino acids 1–426, or TREK-2 amino acids 1–538 with an additional three amino acids (SNS) at the C terminus. TRAAK mutants were introduced by polymerase chain reaction (PCR). Linearized DNA was transcribed in vitro using T7 polymerase. […] Currents were recorded at 25 °C from inside-out patches excised from oocytes 1 to 5 d after RNA injection. […]
(§1) Patches were evaluated with voltage-step protocols to confirm TRAAK expression and minimal non-specific leak based on reversal potential. Currents were recorded using an Axopatch 200B amplifier (Molecular Devices) at a bandwidth of 1 kHz and digitized with an Digidata 1550B (Molecular Devices) at 100–500 kHz using pClamp10.7 software. […] In an effort to minimize variability associated with differences in resting membrane tension, we targeted patches with low basal curvature and low resting channel activity and ensured measured pressure difference across the patch was as close to zero as possible at rest to prevent mechanical activation of channels. […]

In a further test the test system is GPR55. Also on record: method as in PMID 17876302, PMID 29669714, PMID 36787750. The settings on record: negative modulation of GPR55; cited from earlier work.
A further test deals with T2, Homo sapiens TREK-2 (Homo sapiens, UniProt P57789).
T2 construct: TREK-2 amino acids 1–538; expressed in transfected cells; host or cells: Xenopus laevis oocytes, cRNA injection
T2 sequence (P57789 1-538): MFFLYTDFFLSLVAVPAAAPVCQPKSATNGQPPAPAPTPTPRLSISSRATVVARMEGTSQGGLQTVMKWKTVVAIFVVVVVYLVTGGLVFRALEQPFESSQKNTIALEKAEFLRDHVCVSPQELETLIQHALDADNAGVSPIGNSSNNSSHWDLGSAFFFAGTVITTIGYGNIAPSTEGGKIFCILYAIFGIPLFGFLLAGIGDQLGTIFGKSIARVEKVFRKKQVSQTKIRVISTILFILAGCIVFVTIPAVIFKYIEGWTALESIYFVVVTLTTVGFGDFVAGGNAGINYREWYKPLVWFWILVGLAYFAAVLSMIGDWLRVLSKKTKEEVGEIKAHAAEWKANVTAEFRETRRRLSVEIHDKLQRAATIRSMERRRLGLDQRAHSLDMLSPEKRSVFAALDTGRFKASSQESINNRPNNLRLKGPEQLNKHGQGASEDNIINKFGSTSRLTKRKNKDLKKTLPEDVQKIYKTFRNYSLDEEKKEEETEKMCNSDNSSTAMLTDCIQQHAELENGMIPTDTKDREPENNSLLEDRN
Description: Excised inside-out patch recording of TREK-2 from Xenopus oocytes. The class given is biochemical.
Text: For patch clamp recording from Xenopus oocytes, genes encoding full-length Homo sapiens TRAAK (UniProt Q9NYG8–2), TREK-1 (UniProt O95069), and TREK-2 (UniProt P57789) were codon optimized for eukaryotic expression, synthesized (Genewiz), and cloned into a modified pGEMHE vector using Xho1 and EcoR1 restriction sites. The transcribed messages encode H. sapiens TRAAK amino acids 1–393, TREK-1 amino acids 1–426, or TREK-2 amino acids 1–538 with an additional three amino acids (SNS) at the C terminus. TRAAK mutants were introduced by polymerase chain reaction (PCR). Linearized DNA was transcribed in vitro using T7 polymerase. Complementary RNA (0.1 to 10 ng for TRAAK, TREK-1, TREK-2, and mutants) in 50 nL H2O was injected into Xenopus laevis oocytes extracted from anesthetized frogs. Currents were recorded at 25 °C from inside-out patches excised from oocytes 1 to 5 d after RNA injection. […]
as §1, with “channels. Data were analyzed using Clampfit 10.7, Excel, and Graphpad Prism software.” for “channels.”
To avoid cannabinoid absorption to plastic, cannabinoid solutions were made in glass vials and diluted by weight, perfusion was performed using glass tubing pulled from borosilicate glass Pasteur pipettes (Fisherbrand, Cat# 13–678-20C), and recordings were performed in glass chambers. Channel activity was continuously recorded during perfusion steps. […]

The subject of the next test is TRPA1. Also on record: method as in PMID 30697147, PMID 31566564. Particulars: activation; cited from earlier work.
In a further test the test system is BK. The arrangement: method as in PMID 38708937. The settings on record: inhibition; cited from earlier work.

Consider `C=C(C)[C@@H]1CCC(C)=C[C@H]1c1c(O)cc(CCCCC)cc1O` [CBD, Cannabidiol], for which the half-inhibitory concentration (IC50) against TRAAKG165E was 162 ± 8 nM; with GPR55, around 500 nM; against Homo sapiens TREK-2, 1300 nM; in the test with BK, 280 nM. For the same compound, on Homo sapiens TREK-2 (TREK-2 dose-response), the Hill-coefficient was found to be 3.8. Also, the “fold less sensitive than TRAAK” value at Homo sapiens TREK-2 (TREK-2 vs TRAAK) is ~ 10 fold. Moreover, the half-maximal effective concentration (EC50) in the test with TRPA1 was 110 nM.
